The source made the active and inactive calls. The rule behind the calls is not given here.

18 compounds from ChEMBL document CHEMBL1154786, “Analgesic, anticonvulsant and anti-inflammatory activities of some synthesized benzodiazipine, triazolopyrimidine and bis-imide derivatives” (Eur J Med Chem, 2009) can be followed below.

Data set [1] is described as follows: Acute toxicity in rat. It is filed as organism-based. Conditions: in vivo.
Data set [2] deals with Mus musculus. The data set can be described thus: Analgesic activity in Webster mouse assessed as normal reaction time at 5 mg/kg, sc after 10-120 mins by hot plate assay relative to valdecoxib. It is filed as functional. Conditions: route subcutaneous.
Data set [3] concerns Mus musculus. The data set can be described thus: Anticonvulsant activity in Webster mouse assessed as protection against yohimbine-HCl-induced clonic seizure at 5 mg/kg, ip administered 30 mins before yohimbine-HCl challenge. In kind it is functional.
Data set [4] concerns Mus musculus. The data set can be described thus: Anticonvulsant activity in Webster mouse assessed as protection against yohimbine-HCl-induced clonic seizure at 5 mg/kg, ip administered 30 mins before yohimbine-HCl challenge relative to carbamazepine. It is filed as functional.
Data set [5] deals with Rattus norvegicus. The data set can be described thus: Antiinflammatory activity in albino rat assessed as protection against carrageenan-induced paw edema at 25 mg/kg, po administered 1 hr before carrageenan challenge measured after 4 hrs. In kind it is functional. In general terms: The carrageenan paw model is a standard test of acute inflammation.
In data set [6] the test system is Rattus norvegicus. The data set can be described thus: Antiinflammatory activity in albino rat assessed as protection against carrageenan-induced paw edema at 50 mg/kg, po administered 1 hr before carrageenan challenge measured after 4 hrs. It is filed as functional.
The test system of data set [7] is Rattus norvegicus. The data set can be described thus: Antiinflammatory activity in albino rat assessed as inhibition of increase in plasma PGE2 level at 25 mg/kg, po by EIA. In kind it is functional.
For data set [8], the system named is Rattus norvegicus. The data set can be described thus: Antiinflammatory activity in albino rat assessed as inhibition of increase in plasma PGE2 level at 50 mg/kg, po by EIA. It is filed as functional.

On to `CC1=CC(c2ccccc2)N=C(Nn2c(=O)c3cc4c(=O)n(NC5=NC(c6ccccc6)C=C(C)N5)c(=O)c4cc3c2=O)N1` (stereo not given), for which the LD50 (commonly the dose expected to kill half of the subjects tested) in data set [1] is 1.68 mg/kg.

For the compound `CC1=Cc2[nH]c(=S)nc(C)c2C(c2ccccc2)C1` (stereo not given), the LD50 in data set [1] stood at 1.87 mg/kg. Further, in the data set on Mus musculus [2], the Activity was 60%.

Turning to `CC1=CC(c2ccccc2)NC(=S)N1` (stereo not given), in data set [1], the LD50 worked out at 1.8 mg/kg. Also, the Activity was determined as 130% with Mus musculus [2], 1 in the data set on Mus musculus [4] (route intraperitoneal), 84.52% with Rattus norvegicus [5] and 96.1% in the data set with Rattus norvegicus [6]. Besides, in the data set with Mus musculus [3] (route intraperitoneal), the ED50 (usually the dose that gives a 50% effect, or the effect in half of the subjects) came out at 32 mg/kg. Further, the inhibition in vivo (as a rule, the relative decrease from the control value, in per cent) at 25 mg/kg with Rattus norvegicus [7] amounted to 78.4%. Also, the inhibition in vivo at 50 mg/kg with Rattus norvegicus [8] stood at 93.5%.

The compound `CC1=Cc2c(c(C)nn2-c2ccccc2)C(c2ccccc2)C1` (stereo not given) gave an LD50 in data set [1] of 1.92 mg/kg.

In the case of `CC1=CC(c2ccccc2)N=C(NN2C(=O)c3ccc4c5c(ccc(c35)C2=O)C(=O)N(NC2=NC(c3ccccc3)C=C(C)N2)C4=O)N1` (stereo not given), the LD50 in data set [1] amounted to 1.78 mg/kg. Also, the Activity with Mus musculus [2] is listed as 60%; in the data set with Mus musculus [4] (route intraperitoneal), 1.8; in the data set with Rattus norvegicus [5], 48.5%; with Rattus norvegicus [6], 51.6%. Moreover, the ED50 in the data set on Mus musculus [3] (route intraperitoneal) amounted to 15 mg/kg. Further, in the data set on Rattus norvegicus [7], the inhibition in vivo at 25 mg/kg worked out at 58.8%. Also, the inhibition in vivo at 50 mg/kg in the data set with Rattus norvegicus [8] was 65%.

For the compound `CC1=Cc2c(c(=O)[nH]n2-c2ccccc2)C(c2ccccc2)C1` (stereo not given), the LD50 in data set [1] stood at 1.86 mg/kg. For the same compound, the Activity in the data set on Mus musculus [2] is on record as 60%; with Rattus norvegicus [5], 63.9%; in the data set on Rattus norvegicus [6], 64.8%. Besides, in the data set with Mus musculus [3], the ED50 result was “inactive”. For the same compound, in the data set with Mus musculus [4], the outcome was inactive. The inhibition in vivo at 25 mg/kg in the data set on Rattus norvegicus [7] stood at 54.9%. The inhibition in vivo at 50 mg/kg in the data set on Rattus norvegicus [8] turned out to be 67%.

Turning to `CC1=CC(c2ccccc2)NC(=S)N1CN1CCOCC1` (stereo not given), in data set [1], the LD50 came to 1.69 mg/kg. Also, the Activity turned out to be 60% in the data set with Mus musculus [2], 2.3 with Mus musculus [4] (route intraperitoneal), 85.84% in the data set on Rattus norvegicus [5] and 98.41% in the data set with Rattus norvegicus [6]. Also, the 50% effective dose (ED50) in the data set on Mus musculus [3] (route intraperitoneal) was 13 mg/kg. Further, the inhibition in vivo at 25 mg/kg with Rattus norvegicus [7] amounted to 90.3%.

Turning to `CC1=CC(c2ccccc2)Nc2ncnn21` (stereo not given), the LD50 in data set [1] was 1.75 mg/kg. The Activity in the data set on Mus musculus [2] is listed as 60%; in the data set on Mus musculus [4] (route intraperitoneal), 2.51; in the data set with Rattus norvegicus [5], 85.25%; with Rattus norvegicus [6] it was 96.05%. Also, in the data set with Mus musculus [3] (route intraperitoneal), the ED50 was 10 mg/kg. Moreover, in the data set on Rattus norvegicus [7], the inhibition in vivo at 25 mg/kg stood at 80.7%. The inhibition in vivo at 50 mg/kg in the data set with Rattus norvegicus [8] was found to be 94.6%.

`CC1=CC(c2ccccc2)Nc2n[nH]c(=S)n21` (stereo not given) showed an LD50 in data set [1] of 1.8 mg/kg. Further, the ED50 entry in the data set with Mus musculus [3] is “inactive”. For the same compound, the outcome in the data set on Mus musculus [4] was inactive. In addition, the Activity in the data set with Rattus norvegicus [6] worked out at 42.38%. In addition, the inhibition in vivo at 50 mg/kg in the data set on Rattus norvegicus [8] came to 66.8%.

Consider `CC(=O)C1C(=O)C=C(C)CC1c1ccccc1` (stereo not given), for which the LD50 in data set [1] was 1.72 mg/kg.

Turning to `NC(=O)N1c2ccccc2C=Cc2ccccc21` [CARBAMAZEPINE], the ED50 with Mus musculus [3] (route intraperitoneal) was found to be 28 mg/kg.

The compound `CC1=CC2=NC(=S)NC(=O)C2C(c2ccccc2)C1` (stereo not given) returned an LD50 in data set [1] of 1.88 mg/kg. Besides, the Activity in the data set on Mus musculus [2] is on record as 130%; in the data set on Mus musculus [4] (route intraperitoneal), 2.04; in the data set on Rattus norvegicus [5], 74.38%; with Rattus norvegicus [6], 85.24%. The ED50 in the data set on Mus musculus [3] (route intraperitoneal) was found to be 15 mg/kg. Further, in the data set with Rattus norvegicus [7], the inhibition in vivo at 25 mg/kg stood at 72.1%. Further, the inhibition in vivo at 50 mg/kg in the data set on Rattus norvegicus [8] was determined as 82.8%.

As for `CC1=CC(c2ccccc2)NC(NN)N1` (stereo not given), the LD50 in data set [1] was 1.88 mg/kg.

In data set [1], `CCOC(=O)C1C(=O)C=C(C)CC1c1ccccc1` (stereo not given) had an LD50 of 1.74 mg/kg. For the same compound, the results for the Activity with Mus musculus [2], with Mus musculus [4] (route intraperitoneal) and with Rattus norvegicus [6] were 60%, 0.68 and 60.26%, respectively. Also, the ED50 with Mus musculus [3] (route intraperitoneal) was 50 mg/kg. The inhibition in vivo at 50 mg/kg in the data set with Rattus norvegicus [8] came to 54.5%.

Turning to `CC1=CC(c2ccccc2)Nc2nnc(C)n21` (stereo not given), the LD50 in data set [1] amounted to 1.97 mg/kg.

Regarding `C[C@]12C=CC(=O)C=C1CC[C@@H]1[C@@H]2[C@@H](O)C[C@@]2(C)[C@H]1CC[C@]2(O)C(=O)CO` [PREDNISOLONE], the LD50 in data set [1] was found to be 1.62 mg/kg. Further, the Activity is 81% in the data set on Rattus norvegicus [5] and 92% in the data set on Rattus norvegicus [6]. In addition, the inhibition in vivo at 25 mg/kg in the data set with Rattus norvegicus [7] was 77%. In addition, in the data set on Rattus norvegicus [8], the inhibition in vivo at 50 mg/kg came to 91%.

For `CC1=CC(c2ccccc2)N=C(NN2C(=O)c3cccc4cccc(c34)C2=O)N1` (stereo not given), in data set [1], the LD50 was determined as 1.85 mg/kg. For the same compound, the Activity with Mus musculus [2] stood at 60%; in the data set on Rattus norvegicus [5], 87.8%; in the data set on Rattus norvegicus [6], 93.15%. The ED50 result with Mus musculus [3] was “inactive”. Further, the result with Mus musculus [4] was inactive. Moreover, the inhibition in vivo at 25 mg/kg with Rattus norvegicus [7] amounted to 88.7%. In the data set on Rattus norvegicus [8], the inhibition in vivo at 50 mg/kg turned out to be 95.6%.

For `CC1=CC(c2ccccc2)N=C(n2cc(C)c(C)n2)N1` (stereo not given), in data set [1], the LD50 came out at 1.79 mg/kg.
